Assay results from patent US5281263A, “Azo dyes containing a carboxy group” (Imperial Chemical Industries PLC, priority 1991, dated 1994).
≈ marks a conversion by molar mass, not a printed value.

Assays:
[1] = absorption of the dye: lambda max and E max; assay type: physicochemical
[2] = solubility of the dye in water; assay type: physicochemical

Compound	E max [1]	lambda max [1] [nm]	solubility ([2]; temperature and pH not given) [mg/mL]	solubility ([2]; 25° C.) [mg/mL]	solubility ([2]; 25° C., pH 9.5) [mg/mL]	solubility ([2]; 25° C., pH 8.5) [mg/mL]
O=C(O)c1ccc(N=Nc2ccc(N=Nc3c(S(=O)(=O)O)cc4ccc(Nc5cccc(C(=O)O)c5)cc4c3O)c3ccccc23)cc1 [Example 3]	about 23,500	553	~80 (≈ 121 mM)			
O=C(O)c1ccc(N=Nc2ccc(N=Nc3c(S(=O)(=O)O)cc4ccc(Nc5ccc(C(=O)O)cc5)cc4c3O)c3ccccc23)cc1 [Example 2]	about 22,000	567		~80 (≈ 121 mM)		
O=C(O)c1cccc(N=Nc2ccc(N=Nc3c(S(=O)(=O)O)cc4ccc(Nc5cccc(C(=O)O)c5)cc4c3O)c3cc(S(=O)(=O)O)ccc23)c1 [Example 6]	about 15,000	578	~100 (≈ 135 mM)			
O=C(O)c1ccc(Nc2ccc3cc(S(=O)(=O)O)c(N=Nc4ccc(N=Nc5cccc(C(=O)O)c5)c5ccccc45)c(O)c3c2)cc1 [Example 1]	about 24,500	558			~80 (≈ 121 mM)	
O=C(O)c1ccc(Nc2ccc3cc(S(=O)(=O)O)c(N=Nc4ccc(N=Nc5cccc(C(=O)O)c5)c5ccc(S(=O)(=O)O)cc45)c(O)c3c2)cc1 [Example 4]	about 24,000	588				130 to 150 (≈ 175 to 202 mM)
